{"source": "paper PMC9127750", "about": "“Structure-based design of CDC42 effector interaction inhibitors for the treatment of cancer” (Cell reports, 2022)", "tested_on": "WM3248 melanoma cells, 486 antibodies", "assay": "Reverse phase protein arrays (RPPA)", "assay_type": "cell-based, Human", "description": "Pellets were snap frozen in liquid nitrogen and shipped to MD Anderson Cancer Center core RPPA facility for RPPA analysis (Table S5). Three biological replicates for each sample were generated.\nNomenclatures on the RPPA heatmaps: name_of_antibody.species_of_antibody.status_of_antibody. V - antibody validated; C - validation of antibody in progress; Q - antibody nonspecific; E – under evaluation; antibodies raised in M - mouse, G - goat, R - rabbit, or T - rat.", "key": {"[1]": {"conditions": "Norm_20: replicates 1-3 and Average, relative to 0"}, "[2]": {"conditions": "Norm_20, replicates 1-3 and Average, relative to Norm_0"}}, "note": "“And” between values parts separate entries of the source, which are not always exact repeats. Identical values can stand only once."}
{"smiles": "CN(C)c1cccc(Nc2cc(-c3ccccc3)nc(C3CCNCC3)n2)c1", "note": "[ARN22089, N1,N1-dimethyl-N3-(6-phenyl-2-(piperidin-4-yl)pyrimidin-4-yl)benzene-1,3-diamine]", "values": [{"measurement": "Shc_pY317.R.C normalized RPPA signal", "setting": "[1]", "value": "0.757 and 1.584 and 1.301 and 1.214"}, {"measurement": "Slfn11.G.C normalized RPPA signal", "setting": "[1]", "value": "1.108 and 1.363 and 1.188"}, {"measurement": "Smac.M.Q normalized RPPA signal", "setting": "[1]", "value": "0.931 and 0.960 and 0.983 and 0.958"}, {"measurement": "Smad1.R.V normalized RPPA signal", "setting": "[1]", "value": "0.987 and 0.977 and 1.047 and 1.004"}, {"measurement": "Smad3.R.V normalized RPPA signal", "setting": "[1]", "value": "1.165 and 1.119 and 1.154"}, {"measurement": "Smad4.R.V normalized RPPA signal", "setting": "[1]", "value": "1.296 and 1.077 and 0.835"}, {"measurement": "Snail.M.Q normalized RPPA signal", "setting": "[1]", "value": "0.600 and 0.686 and 0.609 and 0.632"}, {"measurement": "Sox2.R.V normalized RPPA signal", "setting": "[1]", "value": "1.375 and 1.408 and 0.996 and 1.260"}, {"measurement": "Sox17.R.V normalized RPPA signal", "setting": "[1]", "value": "0.910 and 0.971 and 1.024 and 0.968"}, {"measurement": "Src.M.V normalized RPPA signal", "setting": "[1]", "value": "0.856 and 0.994 and 0.844 and 0.898"}, {"measurement": "Src_pY416.R.V normalized RPPA signal", "setting": "[1]", "value": "0.922 and 0.983 and 0.992"}, {"measurement": "Src_pY527.R.V normalized RPPA signal", "setting": "[1]", "value": "1.101 and 1.696 and 1.289"}, {"measurement": "Stat1_pY701.R.V normalized RPPA signal", "setting": "[1]", "value": "0.978 and 0.992 and 1.003"}, {"measurement": "Stat3.R.C normalized RPPA signal", "setting": "[1]", "value": "0.916 and 0.933 and 0.984 and 0.944"}, {"measurement": "Stat3_pY705.R.C normalized RPPA signal", "setting": "[1]", "value": "1.624 and 1.373 and 1.082 and 1.360"}, {"measurement": "Stat5a.R.V normalized RPPA signal", "setting": "[1]", "value": "0.918 and 1.001 and 1.032"}, {"measurement": "Stathmin.1.R.V normalized RPPA signal", "setting": "[1]", "value": "1.002 and 0.917 and 0.896 and 0.939"}, {"measurement": "Syk.M.V normalized RPPA signal", "setting": "[1]", "value": "0.729 and 0.896 and 0.950 and 0.859"}, {"measurement": "Synaptophysin.R.C normalized RPPA signal", "setting": "[1]", "value": "1.010 and 0.835 and 0.914 and 0.920"}, {"measurement": "TAZ.R.V normalized RPPA signal", "setting": "[1]", "value": "0.593 and 0.609 and 0.746"}, {"measurement": "TEAD.R.C normalized RPPA signal", "setting": "[1]", "value": "0.753 and 0.847 and 1.189 and 0.929"}, {"measurement": "TFAM.R.V normalized RPPA signal", "setting": "[1]", "value": "1.017 and 0.908 and 0.988"}, {"measurement": "TFRC.R.V normalized RPPA signal", "setting": "[1]", "value": "0.954 and 0.936 and 0.905"}, {"measurement": "TIGAR.R.V normalized RPPA signal", "setting": "[1]", "value": "1.016 and 1.029 (2×)"}, {"measurement": "TRAP1.M.V normalized RPPA signal", "setting": "[1]", "value": "0.880 and 0.858 and 0.987 and 0.908"}, {"measurement": "TRIM24.R.C normalized RPPA signal", "setting": "[1]", "value": "0.971 and 1.220 and 0.935"}, {"measurement": "TRIM25.R.C normalized RPPA signal", "setting": "[1]", "value": "0.761 and 0.842 and 1.250"}, {"measurement": "TRIP13.R.V normalized RPPA signal", "setting": "[1]", "value": "0.937 and 1.026 and 0.990 and 0.984"}, {"measurement": "Tau.M.C normalized RPPA signal", "setting": "[1]", "value": "1.361 and 0.904 and 1.112"}, {"measurement": "Transglutaminase.M.V normalized RPPA signal", "setting": "[1]", "value": "0.939 and 1.702 and 2.431 and 1.691"}, {"measurement": "A.Raf.R.V RPPA signal, normalized", "setting": "[2]", "value": "1.150 and 0.931 and 1.016"}, {"measurement": "A.Raf_pS299.R.C RPPA signal, normalized", "setting": "[2]", "value": "0.948 and 1.046 and 0.962 and 0.985"}, {"measurement": "ACC1.R.C RPPA signal, normalized", "setting": "[2]", "value": "0.841 and 0.807 and 0.895"}, {"measurement": "ACC_pS79.R.V RPPA signal, normalized", "setting": "[2]", "value": "1.085 and 0.894 and 1.442 and 1.140"}, {"measurement": "ACLY_pS455.R.V RPPA signal, normalized", "setting": "[2]", "value": "0.968 and 1.117 and 1.143 and 1.076"}, {"measurement": "ACSL1.R.V RPPA signal, normalized", "setting": "[2]", "value": "0.997 and 1.027 and 1.096"}, {"measurement": "ACVRL1.R.C RPPA signal, normalized", "setting": "[2]", "value": "0.959 and 0.966 and 0.988"}, {"measurement": "ADAR1.M.V RPPA signal, normalized", "setting": "[2]", "value": "1.103 and 1.393 and 0.980 and 1.159"}, {"measurement": "ALKBH5.R.V RPPA signal, normalized", "setting": "[2]", "value": "1.265 and 1.161 and 1.050 and 1.159"}, {"measurement": "AMPK.a2_pS345.R.V RPPA signal, normalized", "setting": "[2]", "value": "0.925 and 1.020 and 1.006"}, {"measurement": "AMPKa.R.C RPPA signal, normalized", "setting": "[2]", "value": "0.976 and 1.132 and 1.050"}, {"measurement": "AMPKa_pT172.R.C RPPA signal, normalized", "setting": "[2]", "value": "1.665 and 1.252 and 2.191 and 1.703"}, {"measurement": "AR.R.V RPPA signal, normalized", "setting": "[2]", "value": "1.167 and 0.791 and 1.202 and 1.053"}, {"measurement": "ARID1A.R.C RPPA signal, normalized", "setting": "[2]", "value": "2.135 and 2.023 and 0.945 and 1.701"}, {"measurement": "ASNS.R.V RPPA signal, normalized", "setting": "[2]", "value": "1.259 and 1.098 (2×)"}, {"measurement": "ATM.R.V RPPA signal, normalized", "setting": "[2]", "value": "0.728 and 0.823 and 1.123 and 0.891"}, {"measurement": "ATM_pS1981.R.V RPPA signal, normalized", "setting": "[2]", "value": "0.946 and 1.124 and 1.011 and 1.027"}, {"measurement": "ATP5A.M.C RPPA signal, normalized", "setting": "[2]", "value": "1.004 and 1.426 and 2.191 and 1.541"}, {"measurement": "ATP5H.R.V RPPA signal, normalized", "setting": "[2]", "value": "1.249 and 1.351 and 1.098 and 1.232"}, {"measurement": "ATR.R.V RPPA signal, normalized", "setting": "[2]", "value": "0.925 and 0.998 and 0.989"}, {"measurement": "ATRX.R.C RPPA signal, normalized", "setting": "[2]", "value": "0.884 and 1.433 and 1.198 and 1.172"}, {"measurement": "ATR_pS428.R.C RPPA signal, normalized", "setting": "[2]", "value": "0.919 and 0.961 and 1.020"}, {"measurement": "AceCS1.R.V RPPA signal, normalized", "setting": "[2]", "value": "1.098 and 1.011 and 1.293 and 1.134"}, {"measurement": "Akt1.R.V RPPA signal, normalized", "setting": "[2]", "value": "0.716 and 0.687 and 1.263 and 0.889"}, {"measurement": "Akt1_pS473.R.V RPPA signal, normalized", "setting": "[2]", "value": "0.845 and 0.816 and 0.918"}, {"measurement": "Akt2.R.V RPPA signal, normalized", "setting": "[2]", "value": "0.702 and 0.698 and 0.824"}, {"measurement": "Akt2_pS474.R.C RPPA signal, normalized", "setting": "[2]", "value": "0.820 and 1.141 and 0.958"}, {"measurement": "Akt.R.V RPPA signal, normalized", "setting": "[2]", "value": "0.842 and 0.873 and 1.113 and 0.943"}, {"measurement": "Akt_pS473.R.V RPPA signal, normalized", "setting": "[2]", "value": "0.693 and 1.281 and 1.006"}, {"measurement": "Akt_pT308.R.V RPPA signal, normalized", "setting": "[2]", "value": "1.208 and 0.954 and 1.057"}, {"measurement": "Ambra1_pS52.R.C RPPA signal, normalized", "setting": "[2]", "value": "0.983 and 1.063 and 0.981 and 1.009"}, {"measurement": "Annexin.I.M.V RPPA signal, normalized", "setting": "[2]", "value": "0.955 and 0.906 and 1.304 and 1.055"}, {"measurement": "Annexin.VII.M.V RPPA signal, normalized", "setting": "[2]", "value": "0.988 and 0.859 and 0.972"}, {"measurement": "Atg3.R.V RPPA signal, normalized", "setting": "[2]", "value": "1.054 and 0.860 and 1.003 and 0.972"}, {"measurement": "Atg4B.R.C RPPA signal, normalized", "setting": "[2]", "value": "0.929 and 1.167 and 0.972 and 1.023"}, {"measurement": "Atg5.R.C RPPA signal, normalized", "setting": "[2]", "value": "1.021 and 0.787 and 1.106 and 0.971"}, {"measurement": "Atg7.R.V RPPA signal, normalized", "setting": "[2]", "value": "0.883 and 0.847 and 0.979 and 0.903"}, {"measurement": "Aurora.A.R.C RPPA signal, normalized", "setting": "[2]", "value": "1.019 and 1.110 and 1.013"}, {"measurement": "Aurora.ABC_pT288_pT232_pT198.R.C RPPA signal, normalized", "setting": "[2]", "value": "0.769 and 0.934"}, {"measurement": "Aurora.B.R.V RPPA signal, normalized", "setting": "[2]", "value": "1.525 and 1.546 and 1.302 and 1.458"}, {"measurement": "Axl.R.V RPPA signal, normalized", "setting": "[2]", "value": "0.924 and 0.799 and 1.335 and 1.019"}, {"measurement": "B7.H3.R.C RPPA signal, normalized", "setting": "[2]", "value": "1.111 and 0.745 and 0.965 and 0.940"}, {"measurement": "B7.H4.R.C RPPA signal, normalized", "setting": "[2]", "value": "0.904 and 0.914 and 0.952"}, {"measurement": "B.Raf.R.C RPPA signal, normalized", "setting": "[2]", "value": "0.818 and 0.836 and 1.274 and 0.976"}, {"measurement": "B.Raf_pS445.R.V RPPA signal, normalized", "setting": "[2]", "value": "0.809 and 0.807 and 1.065 and 0.893"}, {"measurement": "BAP1.M.V RPPA signal, normalized", "setting": "[2]", "value": "0.987 and 0.925 and 1.001"}, {"measurement": "BCL2A1.R.V RPPA signal, normalized", "setting": "[2]", "value": "0.937 and 1.262 and 1.127"}, {"measurement": "BMK1.Erk5_pT218_Y220.R.V RPPA signal, normalized", "setting": "[2]", "value": "0.876 and 0.918 and 0.861 and 0.885"}, {"measurement": "BRCA1.M.C RPPA signal, normalized", "setting": "[2]", "value": "1.226 and 1.030 and 1.116"}, {"measurement": "BRD4.R.V RPPA signal, normalized", "setting": "[2]", "value": "1.775 and 1.486 and 0.963 and 1.408"}, {"measurement": "Bad_pS112.R.V RPPA signal, normalized", "setting": "[2]", "value": 1.169}, {"measurement": "Bak.R.C RPPA signal, normalized", "setting": "[2]", "value": "1.030 and 0.930 and 1.021 and 0.994"}]}
